{"source": "paper PMC10004634", "about": "(PLOS ONE, 2023)", "experiment_in_all_cases": "biochemical", "parameters_in_all_cases": "KINOMEscan scanMAX competition binding, DNA-tagged kinases, qPCR read-out, percent control at 300 nM", "key": {"[1]": {"target": "ACVR2A (Homo sapiens, UniProt P27037)", "sequence (P27037 whole entry)": "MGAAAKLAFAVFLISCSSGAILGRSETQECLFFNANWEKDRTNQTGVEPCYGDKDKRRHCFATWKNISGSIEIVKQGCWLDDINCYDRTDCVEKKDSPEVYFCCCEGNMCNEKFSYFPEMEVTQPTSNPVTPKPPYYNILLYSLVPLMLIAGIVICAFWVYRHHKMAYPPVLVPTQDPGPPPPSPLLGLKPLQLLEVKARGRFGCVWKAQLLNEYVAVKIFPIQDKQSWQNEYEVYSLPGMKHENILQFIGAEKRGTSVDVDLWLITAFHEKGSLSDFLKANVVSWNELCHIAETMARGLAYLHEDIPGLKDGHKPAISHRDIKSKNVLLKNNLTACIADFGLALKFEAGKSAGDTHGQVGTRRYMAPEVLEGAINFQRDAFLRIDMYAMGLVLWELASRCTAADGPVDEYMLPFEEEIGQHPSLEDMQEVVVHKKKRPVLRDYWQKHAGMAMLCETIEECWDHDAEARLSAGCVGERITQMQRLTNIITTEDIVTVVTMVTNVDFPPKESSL"}, "[2]": {"target": "T1, MAP4K3 (Homo sapiens, UniProt Q8IVH8)", "T1 sequence (Q8IVH8 1-894)": "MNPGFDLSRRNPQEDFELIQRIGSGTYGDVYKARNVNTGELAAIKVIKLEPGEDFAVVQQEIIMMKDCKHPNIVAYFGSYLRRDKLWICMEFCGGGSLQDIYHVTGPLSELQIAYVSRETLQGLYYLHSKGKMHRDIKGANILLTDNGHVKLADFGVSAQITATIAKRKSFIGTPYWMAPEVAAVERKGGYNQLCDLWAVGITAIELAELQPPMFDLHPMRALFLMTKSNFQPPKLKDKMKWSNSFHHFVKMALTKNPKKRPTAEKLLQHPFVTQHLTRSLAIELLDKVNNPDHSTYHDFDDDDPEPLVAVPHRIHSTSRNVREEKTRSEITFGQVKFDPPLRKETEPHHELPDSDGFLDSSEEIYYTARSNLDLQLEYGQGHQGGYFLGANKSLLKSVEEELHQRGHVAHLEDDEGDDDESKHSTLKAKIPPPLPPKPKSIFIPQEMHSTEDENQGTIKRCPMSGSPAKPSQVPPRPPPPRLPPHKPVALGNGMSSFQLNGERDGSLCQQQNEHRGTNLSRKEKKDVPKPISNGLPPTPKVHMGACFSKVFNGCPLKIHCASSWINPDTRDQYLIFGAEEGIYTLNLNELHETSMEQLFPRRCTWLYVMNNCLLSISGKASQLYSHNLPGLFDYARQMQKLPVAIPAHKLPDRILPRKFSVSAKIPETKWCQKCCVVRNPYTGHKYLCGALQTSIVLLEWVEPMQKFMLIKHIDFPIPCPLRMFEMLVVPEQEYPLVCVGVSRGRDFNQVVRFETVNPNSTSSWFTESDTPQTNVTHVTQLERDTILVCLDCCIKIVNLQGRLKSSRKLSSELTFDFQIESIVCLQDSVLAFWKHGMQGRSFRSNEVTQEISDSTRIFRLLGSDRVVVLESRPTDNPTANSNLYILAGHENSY"}, "[3]": {"target": "ROS1 (Homo sapiens, UniProt P08922)"}, "[4]": {"target": "PDGFRB (Homo sapiens, UniProt P09619)", "sequence (P09619 whole entry)": "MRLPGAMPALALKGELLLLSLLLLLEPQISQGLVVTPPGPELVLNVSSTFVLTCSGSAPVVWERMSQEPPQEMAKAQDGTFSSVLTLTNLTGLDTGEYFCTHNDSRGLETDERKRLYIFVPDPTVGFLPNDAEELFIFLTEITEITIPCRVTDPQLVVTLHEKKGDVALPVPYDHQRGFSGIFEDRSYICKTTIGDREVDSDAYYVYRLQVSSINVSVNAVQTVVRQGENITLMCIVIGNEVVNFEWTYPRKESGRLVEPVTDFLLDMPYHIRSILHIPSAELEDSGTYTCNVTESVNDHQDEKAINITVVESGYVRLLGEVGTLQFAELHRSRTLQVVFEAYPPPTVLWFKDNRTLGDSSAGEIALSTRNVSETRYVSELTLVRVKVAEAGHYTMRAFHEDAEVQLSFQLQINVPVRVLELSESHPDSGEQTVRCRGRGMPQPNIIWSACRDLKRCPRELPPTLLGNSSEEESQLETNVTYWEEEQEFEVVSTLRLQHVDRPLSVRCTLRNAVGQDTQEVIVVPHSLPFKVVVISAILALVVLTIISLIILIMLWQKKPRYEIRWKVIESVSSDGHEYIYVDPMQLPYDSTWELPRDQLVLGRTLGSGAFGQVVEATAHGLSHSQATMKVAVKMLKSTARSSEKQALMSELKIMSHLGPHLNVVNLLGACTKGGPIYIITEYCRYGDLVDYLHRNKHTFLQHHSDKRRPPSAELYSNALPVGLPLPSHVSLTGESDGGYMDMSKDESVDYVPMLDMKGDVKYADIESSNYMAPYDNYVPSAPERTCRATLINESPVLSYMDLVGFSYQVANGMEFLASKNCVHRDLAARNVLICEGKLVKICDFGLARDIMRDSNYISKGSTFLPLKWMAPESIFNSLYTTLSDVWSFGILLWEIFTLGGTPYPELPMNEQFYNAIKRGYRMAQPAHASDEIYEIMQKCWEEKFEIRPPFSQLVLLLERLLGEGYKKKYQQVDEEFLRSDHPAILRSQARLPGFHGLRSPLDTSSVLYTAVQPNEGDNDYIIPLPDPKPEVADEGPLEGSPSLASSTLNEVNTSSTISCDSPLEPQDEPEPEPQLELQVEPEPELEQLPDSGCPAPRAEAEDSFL"}, "[5]": {"target": "STK33 (Homo sapiens, UniProt Q9BYT3)"}, "[6]": {"target": "MAP3K1 (Homo sapiens, UniProt Q13233)", "sequence (Q13233 whole entry)": "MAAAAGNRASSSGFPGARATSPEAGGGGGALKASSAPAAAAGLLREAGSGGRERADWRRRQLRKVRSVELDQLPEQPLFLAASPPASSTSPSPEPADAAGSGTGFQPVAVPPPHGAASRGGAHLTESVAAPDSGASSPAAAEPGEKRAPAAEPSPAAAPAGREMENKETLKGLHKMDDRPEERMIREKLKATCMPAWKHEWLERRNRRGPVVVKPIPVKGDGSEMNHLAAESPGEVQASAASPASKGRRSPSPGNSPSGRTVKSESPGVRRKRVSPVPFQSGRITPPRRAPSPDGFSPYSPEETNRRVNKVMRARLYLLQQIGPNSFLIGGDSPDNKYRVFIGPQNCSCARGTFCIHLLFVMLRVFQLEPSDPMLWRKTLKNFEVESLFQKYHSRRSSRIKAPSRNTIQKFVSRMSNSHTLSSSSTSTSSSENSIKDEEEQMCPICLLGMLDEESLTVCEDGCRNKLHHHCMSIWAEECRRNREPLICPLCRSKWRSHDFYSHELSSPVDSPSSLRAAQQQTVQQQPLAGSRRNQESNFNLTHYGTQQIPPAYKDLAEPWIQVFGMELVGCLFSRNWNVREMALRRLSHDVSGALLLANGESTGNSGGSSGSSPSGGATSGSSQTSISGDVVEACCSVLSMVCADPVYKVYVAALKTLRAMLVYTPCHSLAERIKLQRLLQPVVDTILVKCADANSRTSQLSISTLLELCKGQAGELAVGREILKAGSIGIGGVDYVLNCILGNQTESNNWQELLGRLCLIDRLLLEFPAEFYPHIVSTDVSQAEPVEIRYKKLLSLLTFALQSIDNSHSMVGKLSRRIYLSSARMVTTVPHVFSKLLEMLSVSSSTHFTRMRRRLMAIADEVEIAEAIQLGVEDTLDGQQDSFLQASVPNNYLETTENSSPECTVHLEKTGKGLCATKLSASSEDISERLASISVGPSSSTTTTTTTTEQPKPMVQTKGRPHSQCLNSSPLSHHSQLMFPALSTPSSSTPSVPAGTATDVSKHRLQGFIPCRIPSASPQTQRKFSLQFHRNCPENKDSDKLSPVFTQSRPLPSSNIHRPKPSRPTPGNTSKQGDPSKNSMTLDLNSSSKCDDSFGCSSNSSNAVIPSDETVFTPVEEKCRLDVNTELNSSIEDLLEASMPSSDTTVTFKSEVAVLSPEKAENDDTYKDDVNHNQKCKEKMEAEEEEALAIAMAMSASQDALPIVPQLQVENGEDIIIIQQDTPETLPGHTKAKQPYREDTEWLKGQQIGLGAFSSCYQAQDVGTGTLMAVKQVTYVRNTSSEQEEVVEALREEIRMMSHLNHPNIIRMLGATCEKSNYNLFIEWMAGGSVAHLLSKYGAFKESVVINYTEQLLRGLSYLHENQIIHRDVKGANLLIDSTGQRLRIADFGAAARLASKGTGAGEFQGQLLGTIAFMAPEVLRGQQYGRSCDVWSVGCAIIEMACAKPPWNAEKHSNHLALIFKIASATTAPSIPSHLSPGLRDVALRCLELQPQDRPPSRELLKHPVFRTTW"}, "[7]": {"target": "NEK4 (Homo sapiens, UniProt P51957)", "sequence (P51957 whole entry)": "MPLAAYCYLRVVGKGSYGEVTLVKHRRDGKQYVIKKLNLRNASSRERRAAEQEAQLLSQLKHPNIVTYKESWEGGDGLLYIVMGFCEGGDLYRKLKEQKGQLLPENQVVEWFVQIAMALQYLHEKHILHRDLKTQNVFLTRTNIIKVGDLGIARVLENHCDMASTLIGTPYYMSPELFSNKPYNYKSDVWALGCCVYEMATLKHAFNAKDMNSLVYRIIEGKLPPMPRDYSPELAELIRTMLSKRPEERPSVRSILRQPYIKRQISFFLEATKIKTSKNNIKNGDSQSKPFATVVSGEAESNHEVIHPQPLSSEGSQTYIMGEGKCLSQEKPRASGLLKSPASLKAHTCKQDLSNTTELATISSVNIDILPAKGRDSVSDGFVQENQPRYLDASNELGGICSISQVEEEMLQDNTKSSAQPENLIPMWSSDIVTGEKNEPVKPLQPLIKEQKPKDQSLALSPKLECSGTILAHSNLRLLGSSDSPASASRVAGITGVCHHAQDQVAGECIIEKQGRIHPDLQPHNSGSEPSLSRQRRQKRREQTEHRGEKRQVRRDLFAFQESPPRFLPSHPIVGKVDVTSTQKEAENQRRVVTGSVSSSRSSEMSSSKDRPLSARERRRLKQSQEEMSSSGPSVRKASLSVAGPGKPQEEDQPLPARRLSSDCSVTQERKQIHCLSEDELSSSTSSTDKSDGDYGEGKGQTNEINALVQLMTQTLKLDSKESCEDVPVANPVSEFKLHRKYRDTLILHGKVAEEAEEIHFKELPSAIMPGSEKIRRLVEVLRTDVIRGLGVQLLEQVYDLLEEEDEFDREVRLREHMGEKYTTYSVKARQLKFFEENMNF"}, "[8]": {"target": "ERN1 (Homo sapiens, UniProt O75460)", "sequence (O75460 whole entry)": "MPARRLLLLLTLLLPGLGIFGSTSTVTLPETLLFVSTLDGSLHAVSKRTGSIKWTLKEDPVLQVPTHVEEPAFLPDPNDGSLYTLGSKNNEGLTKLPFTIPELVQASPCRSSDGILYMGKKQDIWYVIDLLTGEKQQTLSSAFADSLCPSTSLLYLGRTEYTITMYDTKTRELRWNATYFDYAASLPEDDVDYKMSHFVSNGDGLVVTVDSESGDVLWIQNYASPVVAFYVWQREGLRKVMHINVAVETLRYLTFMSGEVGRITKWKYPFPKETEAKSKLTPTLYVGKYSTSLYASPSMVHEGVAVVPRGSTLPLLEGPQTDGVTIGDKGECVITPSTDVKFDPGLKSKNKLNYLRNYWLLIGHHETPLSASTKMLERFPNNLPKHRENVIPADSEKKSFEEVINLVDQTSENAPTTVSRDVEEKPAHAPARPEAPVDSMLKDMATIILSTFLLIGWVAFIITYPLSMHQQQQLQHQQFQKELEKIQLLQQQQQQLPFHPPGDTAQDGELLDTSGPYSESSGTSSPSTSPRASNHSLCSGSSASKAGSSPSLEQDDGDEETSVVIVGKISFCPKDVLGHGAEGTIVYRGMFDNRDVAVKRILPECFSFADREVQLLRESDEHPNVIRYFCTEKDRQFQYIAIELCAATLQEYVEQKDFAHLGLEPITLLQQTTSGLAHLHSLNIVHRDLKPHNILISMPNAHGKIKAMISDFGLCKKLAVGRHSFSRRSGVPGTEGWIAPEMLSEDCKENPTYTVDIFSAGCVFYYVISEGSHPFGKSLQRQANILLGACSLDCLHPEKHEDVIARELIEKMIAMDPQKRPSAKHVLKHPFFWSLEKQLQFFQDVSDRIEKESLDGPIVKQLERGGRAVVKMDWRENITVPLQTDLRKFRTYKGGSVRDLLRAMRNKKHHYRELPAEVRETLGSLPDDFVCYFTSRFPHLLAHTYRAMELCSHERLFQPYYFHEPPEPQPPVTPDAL"}, "[9]": {"target": "T2, TAOK1 (Homo sapiens, UniProt Q7L7X3)", "T2 sequence (Q7L7X3 1-1001)": "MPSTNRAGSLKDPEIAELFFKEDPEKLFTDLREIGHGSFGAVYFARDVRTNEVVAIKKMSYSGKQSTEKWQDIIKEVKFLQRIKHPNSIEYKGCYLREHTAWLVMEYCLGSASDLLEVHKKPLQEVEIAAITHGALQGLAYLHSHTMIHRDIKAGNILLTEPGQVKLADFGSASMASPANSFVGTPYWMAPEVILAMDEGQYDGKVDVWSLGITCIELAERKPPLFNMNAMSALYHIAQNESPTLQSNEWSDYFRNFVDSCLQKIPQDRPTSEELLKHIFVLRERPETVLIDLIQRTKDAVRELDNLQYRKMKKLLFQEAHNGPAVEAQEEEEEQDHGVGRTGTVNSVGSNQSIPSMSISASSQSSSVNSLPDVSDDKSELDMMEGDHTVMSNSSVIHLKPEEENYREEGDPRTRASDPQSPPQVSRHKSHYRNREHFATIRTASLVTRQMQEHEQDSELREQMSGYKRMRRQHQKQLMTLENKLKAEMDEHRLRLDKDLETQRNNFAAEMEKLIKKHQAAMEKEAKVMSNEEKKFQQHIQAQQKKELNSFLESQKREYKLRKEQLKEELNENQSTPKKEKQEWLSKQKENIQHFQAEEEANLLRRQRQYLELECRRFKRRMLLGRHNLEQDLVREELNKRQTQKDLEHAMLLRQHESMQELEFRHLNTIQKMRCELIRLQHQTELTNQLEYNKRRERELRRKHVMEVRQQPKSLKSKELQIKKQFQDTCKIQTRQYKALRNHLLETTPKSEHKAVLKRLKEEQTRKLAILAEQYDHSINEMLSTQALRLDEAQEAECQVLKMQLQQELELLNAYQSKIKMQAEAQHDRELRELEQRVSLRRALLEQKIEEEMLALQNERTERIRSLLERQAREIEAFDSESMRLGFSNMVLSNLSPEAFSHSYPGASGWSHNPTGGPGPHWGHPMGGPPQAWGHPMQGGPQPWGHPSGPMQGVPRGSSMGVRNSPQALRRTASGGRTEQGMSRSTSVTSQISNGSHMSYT"}, "[10]": {"conditions": "read-out: Percent control / Acalabrutinib"}, "[11]": {"conditions": "read-out: Percent control / Ibrutinib"}, "[12]": {"conditions": "read-out: Percent control / Tirabrutinib"}, "[13]": {"conditions": "read-out: Percent control / Zanubrutinib"}}, "note": "Read-outs that look alike come from different tables or passages of the source.", "data": [{"smiles": "CC#CC(=O)N1CCC[C@H]1c1nc(-c2ccc(C(=O)Nc3ccccn3)cc2)c2c(N)nccn12", "note": "[Acalabrutinib]", "values": [{"measurement": "remaining binding at 0.3 µM", "setting": "[1]; [10]", "result": 80, "unit": "%"}, {"measurement": "remaining binding at 0.3 µM", "setting": "[2]; [10]", "result": 94, "unit": "%"}, {"measurement": "remaining binding at 0.3 µM", "setting": "[3]; [10]", "result": 86, "unit": "%"}, {"measurement": "remaining binding at 0.3 µM", "setting": "[4]; [10]", "result": 93, "unit": "%"}, {"measurement": "remaining binding at 0.3 µM", "setting": "[5]; [10]", "result": 90, "unit": "%"}, {"measurement": "remaining binding at 0.3 µM", "setting": "[6]; [10]", "result": 96, "unit": "%"}, {"measurement": "remaining binding at 0.3 µM", "setting": "[7]; [10]", "result": 88, "unit": "%"}, {"measurement": "remaining binding at 0.3 µM", "setting": "[8]; [10]", "result": 96, "unit": "%"}]}, {"smiles": "C=CC(=O)N1CCC[C@@H](n2nc(-c3ccc(Oc4ccccc4)cc3)c3c(N)ncnc32)C1", "note": "[Ibrutinib]", "values": [{"measurement": "remaining binding at 0.3 µM", "setting": "[1]; [11]", "result": 86, "unit": "%"}, {"measurement": "remaining binding at 0.3 µM", "setting": "[2]; [11]", "result": 89, "unit": "%"}, {"measurement": "remaining binding at 0.3 µM", "setting": "[4]; [11]", "result": 38, "unit": "%"}, {"measurement": "remaining binding at 0.3 µM", "setting": "[5]; [11]", "result": 86, "unit": "%"}, {"measurement": "remaining binding at 0.3 µM", "setting": "[9]; [11]", "result": 81, "unit": "%"}, {"measurement": "remaining binding at 0.3 µM", "setting": "[6]; [11]", "result": 86, "unit": "%"}, {"measurement": "remaining binding at 0.3 µM", "setting": "[8]; [11]", "result": 89, "unit": "%"}]}, {"smiles": "CC#CC(=O)N1CC[C@@H](n2c(=O)n(-c3ccc(Oc4ccccc4)cc3)c3c(N)ncnc32)C1", "note": "[Tirabrutinib]", "values": [{"measurement": "remaining binding at 0.3 µM", "setting": "[3]; [12]", "result": 94, "unit": "%"}, {"measurement": "remaining binding at 0.3 µM", "setting": "[4]; [12]", "result": 79, "unit": "%"}, {"measurement": "remaining binding at 0.3 µM", "setting": "[9]; [12]", "result": 82, "unit": "%"}, {"measurement": "remaining binding at 0.3 µM", "setting": "[7]; [12]", "result": 99, "unit": "%"}, {"measurement": "remaining binding at 0.3 µM", "setting": "[8]; [12]", "result": 87, "unit": "%"}]}, {"smiles": "C=CC(=O)N1CCC([C@@H]2CCNc3c(C(N)=O)c(-c4ccc(Oc5ccccc5)cc4)nn32)CC1", "note": "[Zanubrutinib]", "values": [{"measurement": "remaining binding at 0.3 µM", "setting": "[1]; [13]", "result": 100, "unit": "%"}, {"measurement": "remaining binding at 0.3 µM", "setting": "[2]; [13]", "result": 91, "unit": "%"}, {"measurement": "remaining binding at 0.3 µM", "setting": "[3]; [13]", "result": 100, "unit": "%"}, {"measurement": "remaining binding at 0.3 µM", "setting": "[4]; [13]", "result": 100, "unit": "%"}, {"measurement": "remaining binding at 0.3 µM", "setting": "[5]; [13]", "result": 93, "unit": "%"}, {"measurement": "remaining binding at 0.3 µM", "setting": "[9]; [13]", "result": 63, "unit": "%"}, {"measurement": "remaining binding at 0.3 µM", "setting": "[6]; [13]", "result": 84, "unit": "%"}, {"measurement": "remaining binding at 0.3 µM", "setting": "[7]; [13]", "result": 100, "unit": "%"}, {"measurement": "remaining binding at 0.3 µM", "setting": "[8]; [13]", "result": 100, "unit": "%"}]}]}
